Experimental data from ChEMBL document CHEMBL1132884, “Carbonic anhydrase inhibitors: synthesis of N-morpholylthiocarbonylsulfenylamino aromatic/heterocyclic sulfonamides and their interaction with isozymes I, II and IV” (Bioorg Med Chem Lett, 2000).

Key:
Carbonic anhydrase 1 = Carbonic anhydrase 1 (Homo sapiens, UniProt P00915)
Description: Inhibition of human carbonic anhydrase I (CAI)

Carbonic anhydrase 2 = Carbonic anhydrase 2 (Homo sapiens, UniProt P00918)
Description: Inhibition of human carbonic anhydrase II (hCA II)

Carbonic anhydrase 4 = molecular target: T1, Carbonic anhydrase 4 (Bos taurus, UniProt Q95323)
T1 sequence (Q95323 whole entry): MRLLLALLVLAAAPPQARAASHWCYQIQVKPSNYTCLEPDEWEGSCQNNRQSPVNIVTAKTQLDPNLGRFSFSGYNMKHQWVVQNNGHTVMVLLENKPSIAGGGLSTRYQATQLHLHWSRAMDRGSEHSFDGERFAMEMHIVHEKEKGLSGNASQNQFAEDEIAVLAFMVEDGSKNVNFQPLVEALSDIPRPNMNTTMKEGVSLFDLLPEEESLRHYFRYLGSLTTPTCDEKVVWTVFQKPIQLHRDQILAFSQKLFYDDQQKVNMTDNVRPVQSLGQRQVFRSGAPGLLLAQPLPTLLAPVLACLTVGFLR
Description: Inhibition of bovine carbonic anhydrase IV from bovine lung microsomes

MCF7 = assay: Compound was tested in vitro for its antitumor activity against breast cancer cell line MCF-7 (50% growth inhibition of tumor cells after 48 hr exposure ); assay type: functional; settings: Homo sapiens, MCF7, 48 h
MDA-N = assay: Compound was tested in vitro for its antitumor activity against breast cancer cell line MDA-N (50% growth inhibition of tumor cells after 48 hr exposure ); assay type: functional; settings: Homo sapiens
SF-295 = assay: Compound was tested in vitro for its antitumor activity against CNS cancer cell line SF-295 (50% growth inhibition of tumor cells after 48 hr exposure ); assay type: functional; settings: Homo sapiens, SF-295, 48 h
SF-268 = assay: Compound was tested in vitro for its antitumor activity against CNS cancer cell line SF-268 (50% growth inhibition of tumor cells after 48 hr exposure ); assay type: functional; settings: Homo sapiens, SF-268, 48 h
COLO 205 = assay: Compound was tested in vitro for its antitumor activity against colon cancer cell line COLO-205 (50% growth inhibition of tumor cells after 48 hr exposure ); assay type: functional; settings: Homo sapiens, COLO 205, 48 h
HOP-62 = assay: Compound was tested in vitro for its antitumor activity against non-small cell lung cancer cell line HOP-62(50% growth inhibition of tumor cells after 48 hr exposure ); assay type: functional; settings: Homo sapiens, HOP-62, 48 h
NCI-H522 = assay: Compound was tested in vitro for its antitumor activity against non-small cell lung cancer cell line NCI-H522 (50% growth inhibition of tumor cells after 48 hr exposure ); assay type: functional; settings: Homo sapiens, NCI-H522, 48 h
HL-60 = assay: Compound was tested in vitro for its antitumor activity against leukemia cell line HL-60(50% growth inhibition of tumor cells after 48 hr exposure ); assay type: functional; settings: Homo sapiens, HL-60, 48 h
MOLT-4 = assay: Compound was tested in vitro for its antitumor activity against leukemia cell line MOLT-4 (50% growth inhibition of tumor cells after 48 hr exposure ); assay type: functional; settings: Homo sapiens, MOLT-4, 48 h
LOX IMVI = assay: Compound was tested in vitro for its antitumor activity against melanoma cell line LOX IMVI (50% growth inhibition of tumor cells after 48 hr exposure ); assay type: functional; settings: Homo sapiens
M14 = assay: Compound was tested in vitro for its antitumor activity against melanoma cell line M14 (50% growth inhibition of tumor cells after 48 hr exposure ); assay type: functional; settings: Homo sapiens, M14, 48 h
SK-MEL-2 = assay: Compound was tested in vitro for its antitumor activity against melanoma cell line SK-MEL-2 (50% growth inhibition of tumor cells after 48 hr exposure ); assay type: functional; settings: Homo sapiens, SK-MEL-2, 48 h
IGROV-1 = assay: Compound was tested in vitro for its antitumor activity against ovarian cancer cell line IGROVI (50% growth inhibition of tumor cells after 48 hr exposure ); assay type: functional; settings: Homo sapiens, IGROV-1, 48 h
OVCAR-4 = assay: Compound was tested in vitro for its antitumor activity against ovarian cancer cell line OVCAR-4 (50% growth inhibition of tumor cells after 48 hr exposure ); assay type: functional; settings: Homo sapiens, OVCAR-4, 48 h
DU-145 = assay: Compound was tested in vitro for its antitumor activity against prostate cancer cell line DU-145 (50% growth inhibition of tumor cells after 48 hr exposure ); assay type: functional; settings: Homo sapiens, DU-145, 48 h
786-0 = assay: Compound was tested in vitro for its antitumor activity against renal cancer cell line […] (50% growth inhibition of tumor cells after 48 hr exposure ); assay type: functional; settings: Homo sapiens, 786-0, 48 h
ACHN = assay: Compound was tested in vitro for its antitumor activity against renal cancer cell line ACHN (50% growth inhibition of tumor cells after 48 hr exposure ); assay type: functional; settings: Homo sapiens
CAKI-1 = assay: Compound was tested in vitro for its antitumor activity against renal cancer cell line CAKI-I (50% growth inhibition of tumor cells after 48 hr exposure ); assay type: functional; settings: Homo sapiens, CAKI-1, 48 h
A549 = assay: Compound was tested in vitro for its antitumor activity against non-small cell lung cancer cell line A549/ATCC(50% growth inhibition of tumor cells after 48 hr exposure ); assay type: functional; settings: Homo sapiens, A549, 48 h
PC-3 = assay: Compound was tested in vitro for its antitumor activity against prostate cancer cell line PC-3 (50% growth inhibition of tumor cells after 48 hr exposure ); assay type: functional; settings: Homo sapiens, PC-3, 48 h
HCT-15 = assay: Compound was tested in vitro for its antitumor activity against colon cancer cell line HCT-15 (50% growth inhibition of tumor cells after 48 hr exposure ); assay type: functional; settings: Homo sapiens, HCT-15, 48 h
SR = assay: Compound was tested in vitro for its antitumor activity against leukemia cell line SR (50% growth inhibition of tumor cells after 48 hr exposure ); assay type: functional; settings: Homo sapiens

Chain of Carbonic anhydrase 1 (P00915 whole entry): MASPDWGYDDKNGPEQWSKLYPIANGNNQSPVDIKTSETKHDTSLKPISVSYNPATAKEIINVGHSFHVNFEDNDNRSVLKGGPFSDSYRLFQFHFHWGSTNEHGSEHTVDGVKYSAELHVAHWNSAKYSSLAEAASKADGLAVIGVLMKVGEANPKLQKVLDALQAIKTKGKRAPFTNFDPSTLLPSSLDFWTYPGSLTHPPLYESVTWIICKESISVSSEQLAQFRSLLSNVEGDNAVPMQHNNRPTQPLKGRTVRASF

NS(=O)(=O)c1ccc(NSC(=S)N2CCOCC2)c(Cl)c1
Ki (Carbonic anhydrase 1): 800 nM | Ki (Carbonic anhydrase 2): 40 nM | Ki (Carbonic anhydrase 4): 94 nM

CCN(C)C(=S)SNCCc1ccc(S(N)(=O)=O)cc1
Ki (Carbonic anhydrase 1): 630 nM | Ki (Carbonic anhydrase 2): 11 nM | Ki (Carbonic anhydrase 4): 30 nM

NS(=O)(=O)c1cccc(NSC(=S)N2CCOCC2)c1
Ki (Carbonic anhydrase 1): 10000 nM | Ki (Carbonic anhydrase 2): 150 nM | Ki (Carbonic anhydrase 4): 290 nM

NS(=O)(=O)c1ccc(NSC(=S)N2CCOCC2)c(F)c1
Ki (Carbonic anhydrase 1): 760 nM | Ki (Carbonic anhydrase 2): 33 nM | Ki (Carbonic anhydrase 4): 120 nM

NS(=O)(=O)c1ccc(NSC(=S)N2CCOCC2)cc1
GI50 (MCF7): 33 nM | GI50 (MDA-N): 61000 nM | GI50 (SF-295): 44000 nM | GI50 (SF-268): 58000 nM | GI50 (COLO 205): 32000 nM | GI50 (HOP-62): 78000 nM | GI50 (NCI-H522): 420 nM | GI50 (HL-60): 86 nM | GI50 (MOLT-4): 10000 nM | GI50 (LOX IMVI): 34000 nM | GI50 (M14): 14000 nM | GI50 (SK-MEL-2): 31000 nM | GI50 (IGROV-1): 70000 nM | GI50 (OVCAR-4): > 100000 nM | GI50 (DU-145): 80000 nM | GI50 (786-0): 12000 nM | GI50 (ACHN): 31000 nM | GI50 (CAKI-1): 30000 nM | GI50 (A549): 46000 nM | GI50 (PC-3): 24000 nM | GI50 (HCT-15): 68000 nM | GI50 (SR): 200 nM | Ki (Carbonic anhydrase 1): 9000 nM | Ki (Carbonic anhydrase 2): 36 nM | Ki (Carbonic anhydrase 4): 100 nM

NS(=O)(=O)c1nnc(NC(=O)CCNSC(=S)N2CCOCC2)s1
Ki (Carbonic anhydrase 1): 105 nM | Ki (Carbonic anhydrase 2): 2 nM | Ki (Carbonic anhydrase 4): 21 nM

NS(=O)(=O)c1ccc(NNSC(=S)N2CCOCC2)cc1
Ki (Carbonic anhydrase 1): 24000 nM | Ki (Carbonic anhydrase 2): 790 nM | Ki (Carbonic anhydrase 4): 650 nM

NS(=O)(=O)c1nnc(NSC(=S)N2CCOCC2)s1
Ki (Carbonic anhydrase 1): 240 nM | Ki (Carbonic anhydrase 2): 6 nM | Ki (Carbonic anhydrase 4): 25 nM

NS(=O)(=O)c1ccc(NS(=O)(=O)c2ccc(NSC(=S)N3CCOCC3)cc2)cc1
Ki (Carbonic anhydrase 1): 30 nM | Ki (Carbonic anhydrase 2): 3 nM | Ki (Carbonic anhydrase 4): 10 nM

NS(=O)(=O)c1ccc(NSC(=S)N2CCOCC2)c(Br)c1
Ki (Carbonic anhydrase 1): 2400 nM | Ki (Carbonic anhydrase 2): 48 nM | Ki (Carbonic anhydrase 4): 96 nM

NS(=O)(=O)c1cc(S(N)(=O)=O)c(NSC(=S)N2CCOCC2)c(Cl)c1Cl
Ki (Carbonic anhydrase 1): 500 nM | Ki (Carbonic anhydrase 2): 18 nM | Ki (Carbonic anhydrase 4): 49 nM

NS(=O)(=O)c1ccc(CCNSC(=S)N2CCOCC2)cc1
GI50 (MCF7): 26 nM | GI50 (MDA-N): 13000 nM | GI50 (SF-295): > 100000 nM | GI50 (SF-268): 90000 nM | GI50 (COLO 205): 21000 nM | GI50 (HOP-62): 62000 nM | GI50 (NCI-H522): 75 nM | GI50 (HL-60): 70 nM | GI50 (MOLT-4): 54000 nM | GI50 (LOX IMVI): 5000 nM | GI50 (M14): 8000 nM | GI50 (SK-MEL-2): 5000 nM | GI50 (IGROV-1): 90 nM | GI50 (OVCAR-4): 61000 nM | GI50 (DU-145): 10000 nM | GI50 (786-0): 11000 nM | GI50 (ACHN): 15000 nM | GI50 (CAKI-1): 9000 nM | GI50 (A549): 11000 nM | GI50 (PC-3): 11000 nM | GI50 (HCT-15): > 100000 nM | GI50 (SR): < 10 nM | Ki (Carbonic anhydrase 1): 360 nM | Ki (Carbonic anhydrase 2): 8 nM | Ki (Carbonic anhydrase 4): 24 nM

NS(=O)(=O)c1ccc(NSC(=S)N2CCOCC2)c(I)c1
Ki (Carbonic anhydrase 1): 3000 nM | Ki (Carbonic anhydrase 2): 55 nM | Ki (Carbonic anhydrase 4): 170 nM

NS(=O)(=O)c1ccc(CNSC(=S)N2CCOCC2)cc1
GI50 (MCF7): 30 nM | GI50 (MDA-N): 15000 nM | GI50 (SF-295): 5400 nM | GI50 (SF-268): 16000 nM | GI50 (COLO 205): 30000 nM | GI50 (HOP-62): 15000 nM | GI50 (NCI-H522): 19 nM | GI50 (HL-60): 90 nM | GI50 (MOLT-4): 9000 nM | GI50 (LOX IMVI): 12000 nM | GI50 (M14): 10000 nM | GI50 (SK-MEL-2): 12000 nM | GI50 (IGROV-1): 52000 nM | GI50 (OVCAR-4): > 100000 nM | GI50 (DU-145): 13000 nM | GI50 (786-0): 10000 nM | GI50 (ACHN): 15000 nM | GI50 (CAKI-1): 17000 nM | GI50 (A549): 38000 nM | GI50 (PC-3): 12000 nM | GI50 (HCT-15): 24000 nM | GI50 (SR): 150 nM | Ki (Carbonic anhydrase 1): 620 nM | Ki (Carbonic anhydrase 2): 10 nM | Ki (Carbonic anhydrase 4): 35 nM

Cn1nc(S(N)(=O)=O)s/c1=N/S(=O)(=O)c1ccc(NSC(=S)N2CCOCC2)cc1
Ki (Carbonic anhydrase 1): 2 nM | Ki (Carbonic anhydrase 2): 0.5 nM | Ki (Carbonic anhydrase 4): 1.3 nM

CCN(SC(=S)N1CCOCC1)C1CC(C)S(=O)(=O)c2sc(S(N)(=O)=O)cc21 (stereo not given)
Ki (Carbonic anhydrase 1): > 50000 nM | Ki (Carbonic anhydrase 2): 6 nM | Ki (Carbonic anhydrase 4): 22 nM

NS(=O)(=O)c1cc(S(N)(=O)=O)c(NSC(=S)N2CCOCC2)cc1Cl
Ki (Carbonic anhydrase 1): 560 nM | Ki (Carbonic anhydrase 2): 15 nM | Ki (Carbonic anhydrase 4): 90 nM

CCN(C)C(=S)SNCc1ccc(S(N)(=O)=O)cc1
Ki (Carbonic anhydrase 1): 950 nM | Ki (Carbonic anhydrase 2): 13 nM | Ki (Carbonic anhydrase 4): 41 nM

NS(=O)(=O)c1nnc(NS(=O)(=O)c2ccc(NSC(=S)N3CCOCC3)cc2)s1
Ki (Carbonic anhydrase 1): 5 nM | Ki (Carbonic anhydrase 2): 1.4 nM | Ki (Carbonic anhydrase 4): 4 nM

Cn1nc(S(N)(=O)=O)s/c1=N/SC(=S)N1CCOCC1
Ki (Carbonic anhydrase 1): 200 nM | Ki (Carbonic anhydrase 2): 6 nM | Ki (Carbonic anhydrase 4): 26 nM

NS(=O)(=O)c1ccccc1NSC(=S)N1CCOCC1
Ki (Carbonic anhydrase 1): 11500 nM | Ki (Carbonic anhydrase 2): 780 nM | Ki (Carbonic anhydrase 4): 500 nM

NS(=O)(=O)c1cccc(NS(=O)(=O)c2ccc(NSC(=S)N3CCOCC3)cc2)c1
Ki (Carbonic anhydrase 1): 31 nM | Ki (Carbonic anhydrase 2): 7 nM | Ki (Carbonic anhydrase 4): 10 nM

CCN(C)C(=S)SNc1ccc(S(N)(=O)=O)cc1
Ki (Carbonic anhydrase 1): 15000 nM | Ki (Carbonic anhydrase 2): 48 nM | Ki (Carbonic anhydrase 4): 140 nM
